How the values were obtained:
ATR = biological target: T1, ATR (Homo sapiens, UniProt Q13535); assay: ATR cellular potency assay (pChk1 Ser345 in HT29 cells after 4NQO); format: cell-based; conditions: pChk1 (Ser 345); Table 2; read-out: Assay b) ATR Cell IC50
T1 construct: endogenous in cells; host or cells: HT29 cells (ECACC #85061109)
Protocol: (§1) The following assays were used to measure the effects of the compounds of the present invention: a) ATM cellular potency assay; b) PI3K cellular potency assay; c) mTOR cellular potency assay; d) ATR cellular potency assay. During the description of the assays, generally: • i. […] IC50 values were calculated using a smart fitting model in Genedata.
ATR is a PI3-kinase-related kinase which phosphorylates multiple substrates on serine or threonine residues in response to DNA damage during or replication blocks. Chk1, a downstream protein kinase of ATR, plays a key role in DNA damage checkpoint control. Activation of Chk1 involves phosphorylation of Ser317 and Ser345 (the latter regarded as the preferential target for phosphorylation/activation by ATR).
The following morning compound of Formula (I) in 100% DMSO were added to assay plates by acoustic dispensing. After 1 h incubation at 37° C. and 5% CO2, 40 nl of 3 mM 4NQO in 100% DMSO was added to all wells by acoustic dispensing, except minimum control wells which were left untreated with 4NQO to generate a null response control. Plates were returned to the incubator for a further 1 h. Then cells were fixed by adding 20 μl of 3.7% formaldehyde in PBS solution and incubating for 20 mins at r.t. Then […] of 0.1% Triton X100 in PBS was added and incubated for 10 minutes at r.t., to permeabalise cells. Then the plates were washed once with […] PBS, using a Biotek EL405 plate washer.
After 2 h incubation at r.t., the plates were washed three times with […] PBS, using a Biotek EL405 plate washer, and plates were then sealed with black plate seals until read. Plates were read using an ArrayScan VTI instrument, using an XF53 filter with 10× objective.

ATM = biological target: T2, ATM (Homo sapiens, UniProt Q13315); assay: ATM cellular potency assay (pATM Ser1981 in irradiated HT29 cells); format: cell-based; conditions: 1 h compound, X-ray irradiation, pATM (Ser1981); Table 2; read-out: Assay a) ATM Cell IC50
T2 construct: endogenous in cells; host or cells: HT29 cells (ECACC #85061109)
Protocol: as §1
Most ATM molecules in the cell are rapidly phosphorylated on this site after doses of radiation as low as 0.5 Gy, and binding of a phosphospecific antibody is detectable after the introduction of only a few DNA double-strand breaks in the cell.
The rationale of the pATM assay is to identify inhibitors of ATM in cells. HT29 cells are incubated with test compounds for 1 h prior to X-ray-irradiation. 1 h later the cells are fixed and stained for pATM (Ser1981). The fluorescence is read on the arrayscan imaging platform.
The following morning compounds of Formula (I) in 100% DMSO were added to assay plates by acoustic dispensing. After 1 h incubation at 37° C. and 5% CO2, plates (up to 6 at a time) were irradiated using the X-RAD 320 instrument (PXi) with equivalent to 600 cGy. Plates were returned to the incubator for a further 1 h. Then cells were fixed by adding 20 μl of 3.7% formaldehyde in PBS solution and incubating for 20 minutes at r.t. before being washed with 50μl/well PBS, using a Biotek EL405 plate washer. Then 20 μl of 0.1% Triton X100 in PBS was added and incubated for 20 minutes at r.t., to permeabalise cells. Then the plates were washed once with 50 μl/well PBS, using a Biotek EL405 plate washer.
After 1 h incubation at r.t., the plates were washed three times with 50 μl/well PBS, using a Biotek EL405 plate washer, and plates were sealed and kept in PBS at 4° C. until read. Plates were read using an ArrayScan VTI instrument, using an XF53 filter with 10× objective.

T1 sequence (Q13535 whole entry): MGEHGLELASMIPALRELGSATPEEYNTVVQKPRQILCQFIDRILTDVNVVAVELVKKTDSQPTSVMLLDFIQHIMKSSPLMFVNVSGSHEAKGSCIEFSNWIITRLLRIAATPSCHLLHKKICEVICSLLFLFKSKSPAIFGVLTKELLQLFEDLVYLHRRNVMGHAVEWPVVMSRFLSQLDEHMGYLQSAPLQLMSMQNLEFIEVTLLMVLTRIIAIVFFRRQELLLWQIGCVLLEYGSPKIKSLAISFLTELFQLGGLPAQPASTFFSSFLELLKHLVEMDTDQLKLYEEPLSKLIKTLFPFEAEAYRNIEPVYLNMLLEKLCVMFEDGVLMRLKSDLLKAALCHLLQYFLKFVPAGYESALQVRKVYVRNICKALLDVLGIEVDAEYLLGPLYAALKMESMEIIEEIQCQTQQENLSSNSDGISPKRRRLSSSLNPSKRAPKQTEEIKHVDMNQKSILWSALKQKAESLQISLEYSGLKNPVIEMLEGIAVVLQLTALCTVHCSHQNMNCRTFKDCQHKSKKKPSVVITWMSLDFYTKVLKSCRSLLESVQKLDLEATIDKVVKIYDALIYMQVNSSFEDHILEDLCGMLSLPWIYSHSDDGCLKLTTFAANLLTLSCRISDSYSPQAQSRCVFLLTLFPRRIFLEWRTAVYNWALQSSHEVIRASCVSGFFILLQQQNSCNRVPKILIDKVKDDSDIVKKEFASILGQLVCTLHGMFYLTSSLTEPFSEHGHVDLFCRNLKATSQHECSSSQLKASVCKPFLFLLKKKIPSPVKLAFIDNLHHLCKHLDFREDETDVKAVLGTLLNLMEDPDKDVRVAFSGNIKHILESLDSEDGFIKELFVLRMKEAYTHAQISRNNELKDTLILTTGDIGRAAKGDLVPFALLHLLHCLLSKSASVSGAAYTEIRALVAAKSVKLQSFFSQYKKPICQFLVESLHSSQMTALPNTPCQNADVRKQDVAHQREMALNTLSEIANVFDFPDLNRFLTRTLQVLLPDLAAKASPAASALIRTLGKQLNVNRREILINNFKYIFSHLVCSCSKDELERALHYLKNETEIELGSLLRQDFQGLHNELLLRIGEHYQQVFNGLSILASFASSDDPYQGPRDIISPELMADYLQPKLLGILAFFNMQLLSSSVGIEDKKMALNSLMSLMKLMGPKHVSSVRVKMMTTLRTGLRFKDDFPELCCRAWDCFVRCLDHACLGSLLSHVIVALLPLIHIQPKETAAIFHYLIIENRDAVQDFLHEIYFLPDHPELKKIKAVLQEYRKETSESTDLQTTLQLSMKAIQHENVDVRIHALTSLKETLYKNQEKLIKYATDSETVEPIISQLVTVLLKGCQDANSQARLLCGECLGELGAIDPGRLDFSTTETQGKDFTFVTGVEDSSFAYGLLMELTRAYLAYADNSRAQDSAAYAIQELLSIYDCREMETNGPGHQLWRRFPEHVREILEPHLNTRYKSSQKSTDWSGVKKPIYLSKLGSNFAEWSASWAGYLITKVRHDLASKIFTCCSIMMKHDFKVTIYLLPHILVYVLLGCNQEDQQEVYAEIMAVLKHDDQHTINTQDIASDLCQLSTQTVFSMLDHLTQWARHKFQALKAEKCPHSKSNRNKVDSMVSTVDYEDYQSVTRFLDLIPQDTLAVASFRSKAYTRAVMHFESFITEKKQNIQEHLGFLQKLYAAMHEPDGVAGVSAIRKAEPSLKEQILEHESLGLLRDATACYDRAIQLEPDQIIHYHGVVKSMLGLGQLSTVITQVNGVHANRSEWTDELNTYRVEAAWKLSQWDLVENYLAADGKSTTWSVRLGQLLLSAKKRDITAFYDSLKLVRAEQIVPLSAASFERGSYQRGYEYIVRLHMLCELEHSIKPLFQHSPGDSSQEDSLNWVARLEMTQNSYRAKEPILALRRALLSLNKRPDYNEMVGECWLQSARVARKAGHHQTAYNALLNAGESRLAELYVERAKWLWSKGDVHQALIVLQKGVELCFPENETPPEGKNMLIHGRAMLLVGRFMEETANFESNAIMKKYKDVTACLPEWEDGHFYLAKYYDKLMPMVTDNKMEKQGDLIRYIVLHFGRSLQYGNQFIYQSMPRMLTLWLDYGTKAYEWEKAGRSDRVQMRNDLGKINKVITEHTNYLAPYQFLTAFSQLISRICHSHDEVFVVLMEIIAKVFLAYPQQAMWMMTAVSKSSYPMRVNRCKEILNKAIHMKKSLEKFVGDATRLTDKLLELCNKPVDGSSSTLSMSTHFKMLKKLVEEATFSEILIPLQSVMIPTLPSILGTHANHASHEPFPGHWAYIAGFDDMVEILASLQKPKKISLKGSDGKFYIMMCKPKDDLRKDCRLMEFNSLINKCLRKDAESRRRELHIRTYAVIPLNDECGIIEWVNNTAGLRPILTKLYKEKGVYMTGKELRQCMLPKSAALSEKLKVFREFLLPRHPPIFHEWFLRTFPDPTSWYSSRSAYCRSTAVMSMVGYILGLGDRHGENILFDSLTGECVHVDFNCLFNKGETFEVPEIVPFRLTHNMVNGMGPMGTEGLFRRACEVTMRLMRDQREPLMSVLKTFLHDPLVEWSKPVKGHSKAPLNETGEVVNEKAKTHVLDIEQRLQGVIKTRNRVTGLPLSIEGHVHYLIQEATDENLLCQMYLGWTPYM
T1 sequence (Q8WXE1 whole entry partner): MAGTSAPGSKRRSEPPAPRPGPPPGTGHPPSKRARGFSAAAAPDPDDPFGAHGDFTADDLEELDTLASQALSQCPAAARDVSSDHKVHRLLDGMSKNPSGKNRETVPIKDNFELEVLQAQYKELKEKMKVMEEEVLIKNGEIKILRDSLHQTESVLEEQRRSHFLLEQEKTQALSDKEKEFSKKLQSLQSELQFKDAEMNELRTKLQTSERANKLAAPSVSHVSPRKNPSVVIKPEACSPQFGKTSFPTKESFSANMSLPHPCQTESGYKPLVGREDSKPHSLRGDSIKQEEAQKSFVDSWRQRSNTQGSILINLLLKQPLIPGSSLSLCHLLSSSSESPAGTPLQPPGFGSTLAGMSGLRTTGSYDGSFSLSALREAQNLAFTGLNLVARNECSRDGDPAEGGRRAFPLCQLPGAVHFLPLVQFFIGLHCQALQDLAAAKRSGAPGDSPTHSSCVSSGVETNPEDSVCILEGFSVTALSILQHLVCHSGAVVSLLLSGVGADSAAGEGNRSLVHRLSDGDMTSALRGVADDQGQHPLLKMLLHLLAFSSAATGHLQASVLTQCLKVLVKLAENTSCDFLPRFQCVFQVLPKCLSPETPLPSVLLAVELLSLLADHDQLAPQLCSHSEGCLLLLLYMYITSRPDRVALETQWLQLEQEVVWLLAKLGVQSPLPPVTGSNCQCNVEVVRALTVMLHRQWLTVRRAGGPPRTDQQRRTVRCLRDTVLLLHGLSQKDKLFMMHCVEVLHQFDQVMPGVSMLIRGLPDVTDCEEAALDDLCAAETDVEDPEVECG

| IC50 (ATR) [nM] | IC50 (ATM) [nM] | Compound |
| --- | --- | --- |
| > 30000 | 2.69 | 8-[6-[4-(dimethylamino)-1-piperidyl]-3-pyridyl-3-methyl-1-tetrahydropyran-4-yl-imidazo[4,5-c]quinolin-2-one [Example 39] |
| > 30000 | 25.8 | CO[C@H]1C[C@@H](n2c(=O)n(C)c3cnc4cc(F)c(-c5ccc(N6CC[C@H](N(C)C)C6)nc5)cc4c32)C1 [Example 21] |
| > 30000 | 24.9 | CO[C@H]1CC[C@H](n2c(=O)n(C)c3cnc4cc(F)c(-c5ccc(N6CC(N(C)C)C6)nc5)cc4c32)C1 (single isomer, unassigned) [Example 30, 8-[6-[3-(dimethylamino)azetidin-1-yl]-3-pyridyl]-7-fluoro-1-[trans-3-methoxycyclopently]-3-methyl-imidazo[4,5-c]quinolin-2-one] |
| 1190 | 15.7 | CO[C@H]1CCC[C@H](n2c(=O)n(C)c3cnc4ccc(-c5ccc(N6CC(N(C)C)C6)nc5)cc4c32)C1 (single isomer, unassigned) [Example 56, 8-[6-[3-(dimethylamino)azetidin-1-yl]-3-pyridyl]-1-[trans-3-methoxycyclohexyl]-3-methyl-imidazo[4,5-c]quinolin-2-one] |
| > 30000 | 2.02 | CN(C)C1CCN(c2ccc(-c3cc4c(cc3F)ncc3c4n([C@H]4CCCOC4)c(=O)n3C)cn2)CC1 [Example 41, 8-[6-[4-(dimethylamino)-1-piperidyl]-3-pyridyl]-7-fluoro-3-methyl-1-[(3S)-tetrahydropyran-3-yl]imidazo[4,5-c]quinolin-2-one] |
| > 25600 | 0.061 | CO[C@H]1CCC[C@H](n2c(=O)n(C)c3cnc4ccc(-c5ccc(N6CCC(N(C)C)CC6)nc5)cc4c32)C1 (single isomer, unassigned) [Example 54, 8-[6-[4-(dimethylamino)-1-piperidyl]-3-pyridyl]-1-[trans-3-methoxycyclohexyl]-3-methyl-imidazo[4,5-c]quinolin-2-one] |
| > 22300 | 18.6 | CN(C)[C@H]1CCN(c2ccc(-c3ccc4ncc5c(c4c3)n([C@@H]3CCCOC3)c(=O)n5C)cn2)C1 [Example 16] |
| > 25500 | 0.753 | CNC1CCN(c2ccc(-c3ccc4ncc5c(c4c3)n(C3CCOCC3)c(=O)n5C)cn2)CC1 [Example 61, 3-methyl-8-[6-[4-(methylamino)-1-piperidyl]-3-pyridyl]-1-tetrahydropyran-4-yl-imidazo[4,5-c]quinolin-2-one] |
| > 21400 | 0.269 | CO[C@H]1CCC[C@H](n2c(=O)n(C)c3cnc4ccc(-c5ccc(N6CCC(N(C)C)CC6)nc5)cc4c32)C1 (single isomer, unassigned) [Example 53, 8-[6-[4-(dimethylamino)-1-piperidyl]-3-pyridyl]-1-[trans-3-methoxycyclohexyl]-3-methyl-imidazo[4,5-c]quinolin-2-one] |
| 18800 | 19.5 | CN(C)C1CN(c2ccc(-c3ccc4ncc5c(c4c3)n(C3CCOCC3)c(=O)n5C)cn2)C1 [Example 28, 8-[6-[3-(dimethylamino)azetidin-1-yl]-3-pyridyl]-3-methyl-1-tetrahydropyran-4-yl-imidazo[4,5-c]quinolin-2-one] |
| 223 | 0.434 | CO[C@H]1CC[C@H](n2c(=O)n(C)c3cnc4ccc(-c5ccc(N6CC[C@@H](N(C)C)C6)nc5)cc4c32)CC1 [Example 12] |
| 1970 | 16.7 | CO[C@@H]1CCC[C@H](n2c(=O)n(C)c3cnc4ccc(-c5ccc(N6CC(N(C)C)C6)nc5)cc4c32)C1 (single isomer, unassigned) [Example 50, 8-[6-[3-(dimethylamino)azetidin-1-yl]-3-pyridyl]-1-[cis-3-methoxycyclohexyl]-3-methyl-imidazo[4,5-c]quinolin-2-one] |

— patent publication US20180280377A1, “Imidazo[4,5-c]quinolin-2-one Compounds and Their Use in Treating Cancer” (ASTRAZENECA AB, priority 2015, published 2018)
